Where a SMILES comes first, the peptide text is derived from it. Where no end group is shown, it is not given here. [ ]: non-standard residue; d: D form.

The first assay deals with T1, ComD receptor (Streptococcus constellatus, UniProt O33616). The assay is described as follows: Luciferase reporter activation. It is filed as cell-based.
Conditions: not given
As usually defined, the EC50 is the midpoint of the concentration-response curve. A lower EC50 goes with a more potent agent. On to DSRIAMGFDFSKLFGK [CSP R5A], for which it took 4.8 nM to reach a half-maximal effect (EC50).
The same measure, in the same setting: with DSRARMGFDFSKLFGK [CSP I4A] the figure was 0.089 nM; with DARIRMGFDFSKLFGK [CSP S2A], 5.6 nM.
The compound `CC[C@H](C)[C@H](NC(=O)[C@H](CCCNC(=N)N)NC(=O)[C@H](CO)NC(=O)[C@@H](N)CC(=O)O)C(=O)N[C@@H](CCCNC(=N)N)C(=O)N[C@H](CCSC)C(=O)NCC(=O)N[C@@H](Cc1ccccc1)C(=O)N[C@@H](CC(=O)O)C(=O)N[C@@H](Cc1ccccc1)C(=O)N[C@@H](CO)C(=O)N[C@@H](CCCCN)C(=O)N[C@@H](CC(C)C)C(=O)N[C@@H](Cc1ccccc1)C(=O)NCC(=O)N[C@@H](CCCCN)C(=O)O` [CSP-m6] (H-DSRIR[dM]GFDFSKLFGK-OH) came in with an EC50 of 35 nM. This EC50 is about 6.2-fold higher than that of the compound before.
Still for that read-out and setting: to “DSRIRMGFDFSKLFGK [Native CSP, reference compound]” belongs 5.2 nM; to `CC[C@H](C)[C@H](NC(=O)[C@H](CCCNC(=N)N)NC(=O)[C@H](CO)NC(=O)[C@@H](N)CC(=O)O)C(=O)N[C@@H](CCCNC(=N)N)C(=O)N[C@@H](CCSC)C(=O)NCC(=O)N[C@@H](Cc1ccccc1)C(=O)N[C@@H](CC(=O)O)C(=O)N[C@@H](Cc1ccccc1)C(=O)N[C@@H](CO)C(=O)N[C@@H](CCCCN)C(=O)N[C@@H](CC(C)C)C(=O)N[C@H](Cc1ccccc1)C(=O)NCC(=O)N[C@@H](CCCCN)C(=O)O` [CSP-f14] (H-DSRIRMGFDFSKL[dF]GK-OH), 2 nM.
For DSRIRAGFDFSKLFGK [CSP M6A], the EC50 is 1.9 nM. The EC50 values of the last two compounds are within 1.5-fold of each other.
Same read-out and setting: to `CC[C@H](C)[C@H](NC(=O)[C@H](CCCNC(=N)N)NC(=O)[C@H](CO)NC(=O)[C@@H](N)CC(=O)O)C(=O)N[C@@H](CCCNC(=N)N)C(=O)N[C@@H](CCSC)C(=O)NCC(=O)N[C@@H](Cc1ccccc1)C(=O)N[C@@H](CC(=O)O)C(=O)N[C@@H](Cc1ccccc1)C(=O)N[C@@H](CO)C(=O)N[C@@H](CCCCN)C(=O)N[C@@H](CC(C)C)C(=O)N[C@@H](Cc1ccccc1)C(=O)NCC(=O)N[C@H](CCCCN)C(=O)O` [CSP-k16] (H-DSRIRMGFDFSKLFG[dK]-OH) belongs 1.7 nM.
Compound `CC[C@@H](C)[C@@H](NC(=O)[C@H](CCCNC(=N)N)NC(=O)[C@H](CO)NC(=O)[C@@H](N)CC(=O)O)C(=O)N[C@@H](CCCNC(=N)N)C(=O)N[C@@H](CCSC)C(=O)NCC(=O)N[C@@H](Cc1ccccc1)C(=O)N[C@@H](CC(=O)O)C(=O)N[C@@H](Cc1ccccc1)C(=O)N[C@@H](CO)C(=O)N[C@@H](CCCCN)C(=O)N[C@@H](CC(C)C)C(=O)N[C@@H](Cc1ccccc1)C(=O)NCC(=O)N[C@@H](CCCCN)C(=O)O` [CSP-i4] (H-DSR[dI]RMGFDFSKLFGK-OH) had an EC50 of 25 nM.
As for `CC[C@H](C)[C@H](NC(=O)[C@H](CCCNC(=N)N)NC(=O)[C@@H](CO)NC(=O)[C@@H](N)CC(=O)O)C(=O)N[C@@H](CCCNC(=N)N)C(=O)N[C@@H](CCSC)C(=O)NCC(=O)N[C@@H](Cc1ccccc1)C(=O)N[C@@H](CC(=O)O)C(=O)N[C@@H](Cc1ccccc1)C(=O)N[C@@H](CO)C(=O)N[C@@H](CCCCN)C(=O)N[C@@H](CC(C)C)C(=O)N[C@@H](Cc1ccccc1)C(=O)NCC(=O)N[C@@H](CCCCN)C(=O)O` [CSP-s2] (H-D[dS]RIRMGFDFSKLFGK-OH), a half-maximal response (EC50) required 7.9 nM. Against the preceding compound, the EC50 is about 3.2-fold lower.
The compound `CC[C@H](C)[C@H](NC(=O)[C@H](CCCNC(=N)N)NC(=O)[C@H](CO)NC(=O)[C@@H](N)CC(=O)O)C(=O)N[C@@H](CCCNC(=N)N)C(=O)N[C@@H](CCSC)C(=O)NCC(=O)N[C@@H](Cc1ccccc1)C(=O)N[C@@H](CC(=O)O)C(=O)N[C@@H](Cc1ccccc1)C(=O)N[C@@H](CO)C(=O)N[C@@H](CCCCN)C(=O)N[C@H](CC(C)C)C(=O)N[C@@H](Cc1ccccc1)C(=O)NCC(=O)N[C@@H](CCCCN)C(=O)O` [CSP-l13] (H-DSRIRMGFDFSK[dL]FGK-OH) returned an EC50 of 25 nM.
In the case of `CC[C@H](C)[C@H](NC(=O)[C@H](CCCNC(=N)N)NC(=O)[C@H](CO)NC(=O)[C@H](N)CC(=O)O)C(=O)N[C@@H](CCCNC(=N)N)C(=O)N[C@@H](CCSC)C(=O)NCC(=O)N[C@@H](Cc1ccccc1)C(=O)N[C@@H](CC(=O)O)C(=O)N[C@@H](Cc1ccccc1)C(=O)N[C@@H](CO)C(=O)N[C@@H](CCCCN)C(=O)N[C@@H](CC(C)C)C(=O)N[C@@H](Cc1ccccc1)C(=O)NCC(=O)N[C@@H](CCCCN)C(=O)O` [CSP-d1] (H-[dD]SRIRMGFDFSKLFGK-OH), the midpoint of the response, the EC50, lay at 9.7 nM.
DSRIRMGFDFSKLFGA [CSP K16A] gave an EC50 of 2.5 nM. This EC50 is about 3.9-fold lower than that of the compound before.
Consider `CC[C@H](C)[C@H](NC(=O)[C@H](CCCNC(=N)N)NC(=O)[C@H](CO)NC(=O)[C@@H](N)CC(=O)O)C(=O)N[C@H](CCCNC(=N)N)C(=O)N[C@@H](CCSC)C(=O)NCC(=O)N[C@@H](Cc1ccccc1)C(=O)N[C@@H](CC(=O)O)C(=O)N[C@@H](Cc1ccccc1)C(=O)N[C@@H](CO)C(=O)N[C@@H](CCCCN)C(=O)N[C@@H](CC(C)C)C(=O)N[C@@H](Cc1ccccc1)C(=O)NCC(=O)N[C@@H](CCCCN)C(=O)O` [CSP-r5] (H-DSRI[dR]MGFDFSKLFGK-OH), for which the EC50 is 47 nM.
As to `CC[C@H](C)[C@H](NC(=O)[C@H](CCCNC(=N)N)NC(=O)[C@H](CO)NC(=O)[C@@H](N)CC(=O)O)C(=O)N[C@@H](CCCNC(=N)N)C(=O)N[C@@H](CCSC)C(=O)NCC(=O)N[C@@H](Cc1ccccc1)C(=O)N[C@@H](CC(=O)O)C(=O)N[C@@H](Cc1ccccc1)C(=O)N[C@@H](CO)C(=O)N[C@H](CCCCN)C(=O)N[C@@H](CC(C)C)C(=O)N[C@@H](Cc1ccccc1)C(=O)NCC(=O)N[C@@H](CCCCN)C(=O)O` [CSP-k12] (H-DSRIRMGFDFS[dK]LFGK-OH), it took 3.7 nM to reach a half-maximal effect (EC50).
`CC[C@H](C)[C@H](NC(=O)[C@@H](CCCNC(=N)N)NC(=O)[C@H](CO)NC(=O)[C@@H](N)CC(=O)O)C(=O)N[C@@H](CCCNC(=N)N)C(=O)N[C@@H](CCSC)C(=O)NCC(=O)N[C@@H](Cc1ccccc1)C(=O)N[C@@H](CC(=O)O)C(=O)N[C@@H](Cc1ccccc1)C(=O)N[C@@H](CO)C(=O)N[C@@H](CCCCN)C(=O)N[C@@H](CC(C)C)C(=O)N[C@@H](Cc1ccccc1)C(=O)NCC(=O)N[C@@H](CCCCN)C(=O)O` [CSP-r3] (H-DS[dR]IRMGFDFSKLFGK-OH) yielded an EC50 of 13 nM.

Staying with this assay, now noted: ΔcomC PcomX::luc reporter, agonism screening.
In the case of DSRIRMGFDFSKLAGK [CSP F14A], the “QS activation (result in words)” value is reported as “abolished QS activation”.
On the same count and under the same terms, to DSAIRMGFDFSKLFGK [CSP R3A] belongs “complete loss of function”.

For the next assay, the target named is T1, ComD receptor.
Assay: not given
It is filed as cell-based.
Conditions: not given
What is called IC50 is the concentration at which inhibition is half-maximal. A lower IC50 goes with greater potency in that assay. For the compound ASRIRMGFDFSKLFGK [CSP D1A], the IC50 stood at 120 nM.

These data come from PMC12266337 (Biochemistry, 2025).
